Tests used:
Assay in all cases: relative viability (nuclei count vs DMSO), 5 days (fraction); higher = more cells survive
Venetoclax + Pictilisib = compound: CC1(C)CCC(CN2CCN(c3ccc(C(=O)NS(=O)(=O)c4ccc(NCC5CCOCC5)c([N+](=O)[O-])c4)c(Oc4cnc5[nH]ccc5c4)c3)CC2)=C(c2ccc(Cl)cc2)C1 [Venetoclax] + CS(=O)(=O)N1CCN(Cc2cc3nc(-c4cccc5[nH]ncc45)nc(N4CCOCC4)c3s2)CC1 [Pictilisib] (partner 1 µM)
Procedure, shortened: (§1)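 One day after seeding in 1536-well plates, lung cancer cell lines were dosed by pin tool. Dosing was either single-drug or a fixed anchor-drug dose plus five library-drug doses (not always all listed) in √10 steps. After 5 days, nuclei were stained in one fix-and-stain step and counted on 4× images, and relative viability is the nuclei count of treated wells over that of vehicle wells, given as the median of duplicate plates.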

Venetoclax + AZD7762 = compound: CC1(C)CCC(CN2CCN(c3ccc(C(=O)NS(=O)(=O)c4ccc(NCC5CCOCC5)c([N+](=O)[O-])c4)c(Oc4cnc5[nH]ccc5c4)c3)CC2)=C(c2ccc(Cl)cc2)C1 [Venetoclax] + NC(=O)Nc1cc(-c2cccc(F)c2)sc1C(=O)N[C@H]1CCCNC1 [AZD7762] (partner 0.2 µM)
Procedure, shortened: as §1

Selumetinib + Phenformin = compound: Cn1cnc2c(F)c(Nc3ccc(Br)cc3Cl)c(C(=O)NOCCO)cc21 [Selumetinib] + N=C(N)NC(=N)NCCc1ccccc1 [Phenformin] (partner 250 µM)
Procedure, shortened: as §1

Venetoclax + Trametinib = compound: CC1(C)CCC(CN2CCN(c3ccc(C(=O)NS(=O)(=O)c4ccc(NCC5CCOCC5)c([N+](=O)[O-])c4)c(Oc4cnc5[nH]ccc5c4)c3)CC2)=C(c2ccc(Cl)cc2)C1 [Venetoclax] + CC(=O)Nc1cccc(-n2c(=O)n(C3CC3)c(=O)c3c(Nc4ccc(I)cc4F)n(C)c(=O)c(C)c32)c1 [Trametinib] (partner 0.02 µM)
Procedure, shortened: as §1

Row | Cell Line | relative viability (Venetoclax + Pictilisib; first compound 0.01 µM) | relative viability (Venetoclax + Pictilisib; first compound 0.03162 µM) | relative viability (Venetoclax + Pictilisib; first compound 0.1 µM) | relative viability (Venetoclax + Pictilisib; first compound 0.3162 µM) | relative viability (Venetoclax + Pictilisib; first compound 1 µM) | relative viability (Venetoclax + AZD7762; first compound 0.01 µM) | relative viability (Venetoclax + AZD7762; first compound 0.03162 µM) | relative viability (Venetoclax + AZD7762; first compound 0.1 µM) | relative viability (Venetoclax + AZD7762; first compound 0.3162 µM) | relative viability (Venetoclax + AZD7762; first compound 1 µM) | relative viability (Selumetinib + Phenformin; first compound 0.02 µM) | relative viability (Selumetinib + Phenformin; first compound 0.06325 µM) | relative viability (Selumetinib + Phenformin; first compound 0.2 µM) | relative viability (Selumetinib + Phenformin; first compound 0.6325 µM) | relative viability (Venetoclax + Trametinib; first compound 0.01 µM) | relative viability (Venetoclax + Trametinib; first compound 0.03162 µM) | relative viability (Venetoclax + Trametinib; first compound 0.1 µM) | relative viability (Venetoclax + Trametinib; first compound 0.3162 µM) | relative viability (Venetoclax + Trametinib; first compound 1 µM)
1 | LCLC-103H | 0.686 | 0.566 | 0.635 | 0.676 | 0.619 | 0.837 | 0.737 | 0.809 | 0.817 | 0.734 | 0.329 | 0.326 | 0.293 | 0.337 | 0.714 | 0.663 | 0.635 | 0.679 | 0.654
2 | NCI-H1993 | 1.03 | 0.802 | 0.8 | 0.685 | 0.78 | 0.635 | 0.787 | 0.651 | 0.816 | 0.763 | 0.506 | 0.569 | 0.466 | 0.551 | 0.509 | 0.518 | 0.506 | 0.591 | 0.535
3 | NCI-H1793 | 0.371 | 0.445 | 0.328 | 0.241 | 0.321 | 0.638 | 0.441 | 0.346 | 0.299 | 0.259 | 0.364 | 0.349 | 0.316 | 0.273 | 0.334 | 0.46 | 0.367 | 0.335 | 0.419
4 | NCI-H2087 | 1.08 | 1.08 | 0.832 | 0.921 | 0.789 | 1.26 | 1.32 | 1.17 | 1.46 | 1.56 | 0.367 | 0.279 | 0.294 | 0.214 | 0.197 | 0.181 | 0.178 | 0.199 | 0.257
5 | NCI-H1355 | 0.493 | 0.547 | 0.377 | 0.467 | 0.404 | 0.723 | 0.733 | 0.705 | 0.716 | 0.652 | 0.435 | 0.43 | 0.391 | 0.373 | 0.455 | 0.46 | 0.435 | 0.432 | 0.44
6 | RERF-LC-KJ | 0.523 | 0.607 | 0.512 | 0.513 | 0.571 | 0.801 | 1.09 | 1.07 | 1.03 | 0.945 | 0.368 | 0.388 | 0.422 | 0.395 | 0.705 | 0.851 | 0.873 | 0.886 | 0.795
7 | NCI-H727 | 0.354 | 0.419 | 0.404 | 0.37 | 0.398 | 0.592 | 0.769 | 0.423 | 0.648 | 0.604 | 0.455 | 0.381 | 0.375 | 0.355 | 0.363 | 0.392 | 0.406 | 0.412 | 0.386
8 | NCI-H1734 | 0.507 | 0.508 | 0.398 | 0.513 | 0.488 | 0.529 | 0.671 | 0.474 | 0.665 | 0.571 | 0.351 | 0.298 | 0.345 | 0.248 | 0.588 | 0.739 | 0.635 | 0.781 | 0.614
9 | NCI-H2126 | 0.482 | 0.538 | 0.487 | 0.528 | 0.488 | 1.06 | 1.01 | 0.932 | 1.02 | 1 | 0.526 | 0.453 | 0.466 | 0.434 | 0.544 | 0.618 | 0.538 | 0.566 | 0.521
10 | NCI-H1792 | 0.228 | 0.306 | 0.161 | 0.262 | 0.278 | 0.58 | 0.698 | 0.703 | 0.608 | 0.565 | 0.192 | – | 0.144 | 0.229 | 0.456 | 0.405 | 0.485 | 0.498 | 0.439
11 | NCI-H23 | 0.595 | 0.501 | 0.381 | 0.479 | 0.508 | 0.198 | 0.268 | 0.279 | 0.262 | 0.199 | 0.834 | 0.706 | 0.774 | 0.519 | 0.441 | 0.427 | 0.365 | 0.346 | 0.346
12 | EMC-BAC-2 | 0.459 | 0.56 | 0.452 | 0.544 | 0.535 | 1.11 | 1.15 | 1.07 | 1.08 | 1.03 | 0.559 | 0.583 | 0.552 | 0.537 | 0.915 | 0.965 | 0.887 | 0.857 | 0.906
13 | NCI-H647 | 0.443 | 0.386 | 0.435 | 0.439 | 0.45 | 0.402 | 0.429 | 0.364 | 0.539 | 0.394 | 0.592 | 0.488 | 0.512 | 0.414 | 0.463 | 0.428 | 0.423 | 0.399 | 0.433
14 | NCI-H1975 | 0.351 | 0.33 | 0.258 | 0.284 | 0.282 | 0.737 | 0.709 | 0.672 | 0.822 | 0.67 | 0.426 | 0.378 | 0.379 | 0.34 | 0.256 | 0.388 | 0.319 | 0.347 | 0.3
15 | ChaGo-K-1 | 0.91 | 0.998 | – | 0.825 | 0.727 | 0.884 | 0.854 | 0.849 | 0.888 | 0.85 | 0.484 | 0.555 | 0.465 | 0.461 | 0.769 | 0.951 | 0.882 | 0.939 | 0.815
16 | NCI-H1437 | 0.538 | 0.443 | 0.435 | 0.386 | 0.404 | 1.14 | 1.14 | 1.11 | 1.08 | 1.07 | 0.269 | 0.232 | 0.216 | 0.243 | 0.5 | 0.52 | 0.529 | 0.463 | 0.435
17 | NCI-H1666 | 0.457 | 0.448 | 0.42 | 0.439 | 0.534 | 0.915 | 0.849 | 0.715 | 0.839 | 0.803 | 0.506 | 0.534 | 0.569 | 0.565 | 0.764 | 0.809 | 0.73 | 0.824 | 0.858
18 | NCI-H2085 | 0.458 | 0.48 | 0.417 | 0.507 | 0.502 | 0.802 | 1.02 | 0.924 | 0.962 | 0.916 | 0.637 | 0.623 | 0.602 | 0.481 | 0.45 | 0.56 | 0.416 | 0.547 | 0.511
19 | LXF-289 | 0.718 | 0.739 | 0.795 | 0.771 | 0.762 | 1.19 | 1.06 | 1.02 | 1.06 | 1.01 | 0.52 | 0.501 | 0.442 | 0.434 | 0.716 | 0.692 | 0.629 | 0.625 | 0.575
20 | NCI-H322M | 0.558 | 0.511 | 0.488 | 0.532 | 0.487 | 0.606 | 0.608 | 0.424 | 0.591 | 0.649 | 0.668 | 0.561 | 0.57 | 0.574 | 0.528 | 0.519 | 0.436 | 0.534 | 0.562
21 | LU99A | 0.321 | 0.357 | 0.362 | 0.297 | 0.319 | 0.343 | 0.391 | 0.251 | 0.367 | 0.307 | 0.905 | 0.799 | 0.85 | 0.835 | 0.485 | 0.611 | 0.482 | 0.566 | 0.596
22 | NCI-H650 | 0.805 | 0.855 | – | 0.842 | 0.797 | 0.986 | 1.1 | 0.872 | 1.22 | 0.899 | 0.521 | 0.407 | 0.551 | 0.54 | 0.875 | 0.995 | 0.892 | 0.892 | 0.963
23 | PC-14 | 0.588 | 0.649 | 0.693 | 0.81 | 0.604 | 0.346 | 0.361 | 0.315 | 0.413 | 0.301 | 0.516 | 0.507 | 0.529 | 0.447 | 0.679 | 0.726 | 0.726 | 0.642 | 0.645
24 | HARA | 0.55 | 0.386 | 0.396 | 0.451 | 0.324 | 0.299 | 0.214 | – | 0.25 | 0.285 | 0.502 | 0.387 | 0.48 | 0.299 | 1.26 | 0.818 | – | 0.647 | 0.676
25 | HOP-62 | 0.725 | 1.04 | 0.493 | 0.904 | 0.634 | 0.486 | 0.841 | 0.522 | 0.726 | 0.494 | 0.753 | 0.657 | 0.624 | 0.465 | 0.44 | 0.341 | 0.366 | 0.442 | 0.39
26 | LK-2 | 0.799 | 0.636 | 0.512 | 0.54 | 0.613 | 0.634 | 0.673 | 0.461 | 0.356 | 0.381 | 0.561 | 0.576 | 0.539 | 0.477 | 0.894 | 0.762 | 0.596 | 0.628 | 0.639
27 | HCC-44 | 0.63 | 0.595 | 0.596 | 0.578 | 0.608 | 1.01 | 0.99 | 1.04 | 0.929 | 0.924 | 0.179 | 0.187 | 0.209 | 0.184 | 1.03 | 1.11 | 1.04 | 1.04 | 0.999
28 | BEN | 0.738 | 0.637 | 0.518 | 0.557 | 0.546 | 0.771 | 0.746 | 0.611 | 0.836 | 0.637 | 0.281 | 0.315 | 0.252 | 0.257 | 1.1 | 1.02 | 0.864 | 1.04 | 1
